Laboratory results taken from US20140234318A1, “TUMOR SPECIFIC OLIGOSACCHARIDE EPITOPES AND USE THEREOF” (GLYKOS FINLAND OY, priority 2002, published 2014).

How the values were obtained:
[1] = tested on: Helicobacter pylori; experiment: Receptor activity of oligosaccharides for Helicobacter pylori; assay type: binding; conditions: relative to the non-galactosylated receptor
Experimental: The structure is changed to 10-fold weaker receptor structure Galβ4GlcNAcβ3Galβ4GlcNAcβ3Galβ4Glc by incubating it with UDP-Gal and β4-galactosyltransferase from bovine milk. b) The oligosaccharide receptor GlcNAcβ3Galβ4GlcNAcβ3Galβ4Glc is incubated with GDP-Fuc and soluble human fucosyltransferase VI corresponding to major the fucosyltransferase from human milk. MALDI-TOF mass spectrometric analysis reveled a major peak corresponding to GlcNAcβ3Galβ4(Fucα3)GlcNAcβ3Galβ4Glc, the structure is confirmed by NMR-spectroscopy. c) Erythrocytes from a patient suffering from glycosylation deficiency causing high levels of terminal GlcNAc-structures including GlcNAcβ3Galβ4GlcβCer are incubated with radiolabeled UDP-Gal and βgalactosyltransferase. Transfer of labeled galactose on the cell surface is observed. The galactosylation of the cells reduces the reactivity of the cells with anti-GlcNAc-antibodies.

[2] = tested on: Helicobacter pylori; conditions: cited from earlier work
[3] = tested on: endogenous galactosyltransferase activity of human serum; experiment: Activation of endogenous galactosyltransferase activity of human serum; assay type: biochemical
Experimental: Fresh human blood sample was collected from blood group B-individual (5 ml). After clotting for 30 min it was centrifuged at +4° C., 2000 rpm for 25 minutes, and the serum was collected for experiments (2 ml, stored on ice).
Reactions were performed with 50 nmol of acceptor saccharide (GlcNAcβ1-3Galβ1-4GlcNAc, from enzymatic synthesis, purified by ion exchange and gel filtration, characterized by NMR and mass spectrometry), 5 nmol UDP-[^14C]Gal (mixture of nonlabelled and radioactive, radioactivity was 100 000 cpm) and 20 μl of fresh human serum (total volume was 20 μl). Reaction conditions were varied by adding cations and bovine milk β1,4-galactosyltransferase (β1,4GalT).

[4] = tested on: IgG antibodies against specific carbohydrate epitopes in serum of cancer patients; experiment: ELISA of serum IgG antibodies binding to synthetic glycoconjugates; parameters: species or system human; conditions: for serum antibody levels against the epitope, summary in words: IgG and IgM, group of four cancer patients
Description: (§1) A group of four people with various stages of diagnosed cancer of the gastrointestinal tract or the ovary, was studied by analyzing serum samples for their concentrations of IgG and IgM antibodies against specific carbohydrate epitopes. The assay consisted of binding of specific antibodies from serum to synthetic glycoconjugates, washing, and then detecting the specifically bound antibody levels in ELISA with enzyme-labelled anti-human IgG or anti-human IgM secondary antibodies and quantitation of specific reaction products.

[5] = tested on: IgM antibodies against specific carbohydrate epitopes in serum of cancer patients; experiment: ELISA of serum IgM antibodies binding to synthetic glycoconjugates; parameters: species or system human
Description: as §1

[6] = tested on: terminal GlcNAc residues in lung adenocarcinoma tissue sections; experiment: Labeling of terminal GlcNAc residues in tissue sections with UDP-GalN-biotin; parameters: species or system human; conditions: streptavin-FITC, fluorescence microscopy
Experimental: In a typical procedure, an oligosaccharide acceptor such as GlcNAcβ1-3Galβ1-4GlcNAcβ1-3Galβ1-4Glc, or deparaffinised formalin-fixed paraffin-embedded tissue sections, are incubated at + 37° C. with a reaction mixture containing 10 mM UDP-GalN-biotin, 160 U/l enzyme, 100 mM Tris-HCl, and 20 mM MnCl2. After washing, the biotin groups are visualised by standard methods in the art, using streptavidin or avidin coupled reagents, for example streptavidin-FITC.

[7] = tested on: recombinant β1,4-galactosyltransferase similar to the enzyme described in (Ramakrishnan and Qasba, 2002); experiment: Transfer of modified galactosamine from UDP-GalN conjugates to terminal GlcNAc acceptor by modified galactosyltransferase; assay type: biochemical, bovine; conditions: MALDI-TOF MS of the product

Molecule | antibody signal intensity from which the assay background has been subtracted ([4]; Patient 1, IgG) | antibody signal intensity from which the assay background has been subtracted ([4]; Patient 2, IgG) | antibody signal intensity from which the assay background has been subtracted ([4]; Patient 3, IgG) | antibody signal intensity from which the assay background has been subtracted ([4]; Patient 4, IgG) | antibody signal intensity from which the assay background has been subtracted ([5]; Patient 1, IgM) | antibody signal intensity from which the assay background has been subtracted ([5]; Patient 2, IgM) | antibody signal intensity from which the assay background has been subtracted ([5]; Patient 3, IgM) | antibody signal intensity from which the assay background has been subtracted ([5]; Patient 4, IgM) | serum antibody levels against the epitope, summary in words [4] | further results
CC(=O)N[C@H]1[C@H](O[C@H]2[C@@H](O)[C@@H](CO)O[C@@H](O[C@H]3[C@H](O)[C@@H](NC(C)=O)[C@H](O[C@H]4[C@@H](O)[C@@H](CO)O[C@@H](O[C@H]5[C@H](O)[C@@H](O)C(O)O[C@@H]5CO)[C@@H]4O)O[C@@H]3CO)[C@@H]2O)O[C@H](CO)[C@@H](O[C@@H]2O[C@H](CO)[C@H](O)[C@H](O)[C@H]2O)[C@@H]1O (stereo partly shown) [Galβ4GlcNAcβ3Galβ4GlcNAcβ3Galβ4Glc] |  |  |  |  |  |  |  |  |  | receptor strength for Helicobacter pylori, weaker than GlcNAcβ3Galβ4GlcNAcβ3Galβ4Glc [1]: 10 fold
CC(=O)N[C@H]1[C@H](O[C@H]2[C@@H](O)[C@@H](CO)O[C@@H](O[C@H]3[C@H](O)[C@@H](O)C(O)O[C@@H]3CO)[C@@H]2O)O[C@H](CO)[C@@H](O[C@@H]2O[C@H](CO)[C@H](O)[C@@H](O[C@@H]3O[C@H](CO)[C@@H](O)[C@H](O)[C@H]3NC(C)=O)[C@H]2O)[C@@H]1O (stereo partly shown) [GlcNAcβ3Galβ4GlcNAcβ3Galβ4Glc] |  |  |  |  |  |  |  |  |  | receptor for Helicobacter pylori [2]: receptor for the gastric pathogen Helicobacter pylori
[Cl][Mn][Cl] [MnCl2] |  |  |  |  |  |  |  |  |  | Product ([3]; 0.2 mM MnCl2, no external β1,4GalT): 457 cpm; Product ([3]; 1 mM MnCl2, no external β1,4GalT): 1073 cpm; Product ([3]; 5 mM MnCl2, no external β1,4GalT): 566 cpm
GlcNAcβ1-2Manα1-6(GlcNAcβ1-2Manα1-3)Manβ1-4GlcNAcβ1-4(Fucα1-6)GlcNAcβ-N-Asn-R [Saccharide 1] | 0 | 0 | 0.006 | 0 | 0 | 0 | 0.01 | 0 | elevated in one patient | 
uridine 5′-diphospho-N-(6-biotinamidohexanoyl)galactosamine [UDP-GalN-biotin] |  |  |  |  |  |  |  |  |  | labeling of cancer cells in tissue sections [6]: cancer cells could be labeled; transfer of the modified galactosamine residue to a terminal GlcNAc acceptor [7]: reacted

Continued, in another order:

antibody signal intensity from which the assay background has been subtracted ([4]; Patient 1, IgG) | antibody signal intensity from which the assay background has been subtracted ([4]; Patient 2, IgG) | antibody signal intensity from which the assay background has been subtracted ([4]; Patient 3, IgG) | antibody signal intensity from which the assay background has been subtracted ([4]; Patient 4, IgG) | antibody signal intensity from which the assay background has been subtracted ([5]; Patient 1, IgM) | antibody signal intensity from which the assay background has been subtracted ([5]; Patient 2, IgM) | antibody signal intensity from which the assay background has been subtracted ([5]; Patient 3, IgM) | antibody signal intensity from which the assay background has been subtracted ([5]; Patient 4, IgM) | Molecule | serum antibody levels against the epitope, summary in words [4] | further results
0.017 | 0.094 | 0 | 0 | 0.125 | 0.041 | 0.011 | 0.056 | GlcNAcβ1-3GalNAcα-O—CH2—R [Saccharide 5] | identical pattern of antibody type response | 
0.039 | 0.078 | 0 | 0 | 0.091 | 0.008 | 0.068 | 0.042 | GlcNAcβ1-6(Galβ1-3)GalNAcα-O—CH2—R [Saccharide 3] | elevated in the whole patient group | 
0 | 0.082 | 0.013 | 0 | 0.159 | 0.029 | 0.122 | 0 | GlcNAcβ-O—CH2—R [Saccharide 4] | Two patients showed elevated serum levels of mainly IgM and one patient mainly IgG | 
